Laboratory results published in patent publication US20220211868A1, “NANOPARTICLES COMPRISING NON-CLASSICAL MHC AND USES THEREOF” (UTI Limited Partnership, priority 2019, published 2022).
Entries after “also recorded” stand apart in the source; their conditions may differ.

Legend:
[1] = tested on: liver iNKT cells, Kupffer cells and B-lymphocytes; assay: Spinning-disk confocal intravital microscopy of liver in Cxcr6GFP/+ Ifng-Delta-ARE+/- (NOD×B6) F1 mice; assay type: in vivo, mouse
Text: To get further insights into downstream cellular targets, spinning-disk confocal intravital microscopy was used to track αGalCer/CD1d-NP-induced iNKT cells, Kuppfer cells, and B-lymphocytes in the livers of treated and untreated Ifng-Delta-ARE^+/− (NOD×B6) F1 mice, which also develop spontaneous PBC-like disease. To track iNKT cells in vivo, Cxcr6^GFP/+ mice were used, in which 60-80% of liver eGFP+ cells are iNKT cells, the remainder being NK and T-cells (Geissmann et al., 2005; Liew et al., 2017). In sterile injury in the liver, recognition of endogenous glycolipid ligands on endothelial cells, Kupffer cells and other CD1d-expressing liver cells by iNKT cells result in the conversion of proinflammatory CCR2+ Ly6Chi monocytes into regulatory CX3CR1+ Ly6Clow monocytes, a process that is driven by iNKT-cell-derived IL-4. […] Although there were similar numbers of B-cells in the liver of untreated mice, they […] in interactions with Cxcr6+ cells to the same extent. […] See Lee, W. Y., et al. (2010). “An intravascular immune response to Borrelia burgdorferi involves Kupffer cells and iNKT cells” Nat. Immunol. 11, 295-302.

[2] = tested on: NOD.c3c4.scid mice; assay: Transfer of disease protection by liver iNKT cells to NOD.c3c4.scid mice reconstituted with diseased splenocytes; assay type: in vivo, mouse; details: vs liver iNKT cells from control NOD.c3c4 donors; FIG. 10
Text: (§1) Next the mechanisms of disease suppression were investigated.

[3] = tested on: CD11b+ APCs from liver-draining LNs and liver Kupffer cells; assay: Suppression of antigen presentation by APCs by liver iNKT cells from treated mice; assay type: cell-based, mouse; details: APCs from untreated mice, FIG. 9
Text: as §1

[4] = tested on: liver iNKT cells; assay: RNA sequencing (RNAseq) of liver iNKT cells sorted from treated vs. untreated NOD.c3c4 mice; assay type: in vivo, mouse
Description: FIG. 5 illustrates normalized RNA expression counts (±SEM) for iNKT-relevant genes in the liver iNKT cells of NOD.c3c4 mice treated with αGalCer (KRN7000)/CD1d-NPs vs. control NOD.c3c4 mice.
To investigate this, RNA sequencing (RNAseq) studies of liver iNKT cells sorted from αGalCer/CD1d-NP-treated vs. untreated NOD.c3c4 mice was performed. […] When considering genes known to be expressed in various iNKT cell subsets (Gapin, L. (2016). “Development of invariant natural killer T cells” Curr. Opin. Immunol. 39, 68-74) including iNKT1 (Zbtb16 (PLZF)-low, Tbx21 (Tbet)+, Gata3−, Rorc (RORgt)−, Foxp3−, Maf−, Cd24−, Cd44+, Klrb1 (NK1.1)+, Ifbg+, IL2−, Il4+, Il17−, Il10−, Il21−, Il2rb (Cd122)+, Mirlet7 (LET-7)+, Znf683 (HOBIT)-high), iNKT2 (Zbtb16-high, Tbx21−, Gata3+, Rorc−, Maf−, Foxp3−, Cd24−, Cd44+, Klrb1−, Ifng−, Il2−, Il4+, Il17−, Il10−, Il21−, Il17rb+, Tnfsf11 (RANKL)+; and iNKT17 (Zbtb16-int, Tbx21−, Gata3−, Rorc+, Foxp3−, Maf-low, Cd24−, Cd44+, Klrb1-low/−, Il2−, il4−, Ifng−, Il17+, Il10−, Il21−, Tgfbr2+, Tnfsf11+), the liver iNKT cells of non-treated NOD.c3c4 mice appeared to be rather unique (Zbtb16+, Tbx21+, Gata3+, Rorc-low, Foxp3−, Maf-low, Cd24-low, Cd44+, Klrb1+, Il2−, Il4-low, Ifng+, Il17−, Il10−, Il21−, Il2rb+, Il17rb-low, Tgfbr2+, Mirlet7−, Znf683−, Tnfsf11−). Remarkably, the liver iNKT cells from treated animals were somewhat similar to the latter, except that they were Rorc−, Maf-high, Il10-high, Il21-high, Il2rb+, Il17rb− and Tgfbr2-low. […] The liver iNKT cells of treated mice were also different from αGalCer-induced NKT10 cells, based on available gene expression data (Il10+, Klrb1-low, Nfil3+ (E4BP4, which regulates IL-10 and IL-13 expression), Nrp1+, Itga4+, Itgae−, Ctla4+, Fr4+, Bcl6−, Il7r+, Slamf6-high, Icos+) (Sag et al., 2014). Unlike these iNKT10 cells, the liver iNKT cells from treated mice were Nfli3−, Nrp1-low, Fr4−, Bcl6-low and Il7r-low. […] These observations were substantiated by comparing the liver iNKT RNAseq data from αGalCer/CD1d-NP-treated and untreated mice to iNKT1, iNKT2, iNKT10 and iNKT17 RNAseq data from Engel et al. (Engel, I., et al. (2016). “Innate-like functions of natural killer T cell subsets result from highly divergent gene programs” Nat. Immunol. 17, 728-739.) (FIG. 6A to 6D)
To ascertain if some of the gene expression differences that were observed between the liver iNKT cells of αGalCer/CD1d-NP-treated and untreated mice were driven, at least in part, by their unique transcriptional factor expression profile, which transcription factors were associated with expression of differentially expressed genes was determined.
Consequently, these αGalCer/CD1d-NP-induced liver iNKT cells are called iNKTR1 cells.

[5] = tested on: wild-type NOD.c3c4 mice; assay: Cytokine/cytokine receptor blockade of therapeutic activity in treated NOD.c3c4 mice; assay type: in vivo, mouse
[6] = tested on: B-cells; assay: Breg cell formation from transferred Il10-eGFP B cells in treated NOD.c3c4 mice; assay type: in vivo, mouse; details: within 7 days of transfer; B-cells pulsed with αGalCer or not
Text: This was done by transferring αGalCer-pulsed or non-pulsed B cells carrying an eGFP transgene in the Il10 locus into αGalCer/CD1d-NP-treated or untreated NOD.c3c4 mice, and enumerated the frequency of transferred CD5+ and CD1d^high B-cells that acquired eGFP expression within 7 days. […] Thus, αGalCer/CD1d-NP treatment triggers iNKTR1 cell formation which then drive Breg cell formation by recognizing endogenous B-cell antigenic ligand(s) in a CD1d-restricted manner.

[7] = tested on: spontaneous PBC-like disease in NOD.c3c4 mice; assay: Treatment of spontaneous PBC-like disease in NOD.c3c4 mice; assay type: in vivo, mouse; details: FIG. 2
Text: FIG. 2 illustrates the effect of treatment with αGalCer (KRN7000)/CD1d-coated NPs vs soluble KRN7000 or uncoated NPs on readouts of PBC in NOD.c3c4 mice. CBD, Common Bile Duct.

[8] = tested on: iNKT cells; assay: Flow cytometry of iNKT cells (αGalCer/CD1d tetramer stained) from treated NOD.c3c4 mice; assay type: in vivo, mouse
Text: FIG. 3 illustrates the effect of treatment with αGalCer (KRN7000)/CD1d-coated NPs vs uncoated NPs on the CD4/CD8 phenotype of liver (top) and splenic (bottom) iNKT cells (stained with αGalCer (KRN7000)/CD1d tetramers).
FIG. 4 illustrates the effect of treatment with αGalCer (KRN7000)/CD1d-coated NPs vs uncoated NPs on the levels of PD1, CD49d, CD69 and LAG3 in liver iNKT cells (stained with αGalCer (KRN7000)/CD1d tetramers).

[9] = RNAseq, negative in liver iNKT cells of untreated mice
[10] = RNAseq, treated mice, unlike iNKT10 cells
[11] = RNAseq, treated vs untreated mice
[12] = flow cytometry, vs liver iNKT cells of control (untreated or Cys-NP-treated) mice, FIG. 4
[13] = treated NOD.c3c4 mice, not shown

## αGalCer/CD1d-NP: nanoparticles coupled to CD1d molecules whose binding groove is loaded with alpha-galactosylceramide (KRN7000)
[1]; 4 days after the last dose
  B-cell killing through iNKT-B-cell interactions: did not appear to result in B-cell killing
[1]; 4 days after the last dose, anti-CD19 labelled B-cells
  interaction of liver iNKT cells with B-cells: seeking and engaging
[1]; bi-weekly treatment, vs untreated mice
  number of liver iNKT cells: massive increase
[1]; imaged 4 days after the last dose
  motility of liver iNKT cells: highly motile
[1]; imaged within 4 hours of a dose
  motility of liver iNKT cells: stopped moving
[2]
  transfer of disease protection by liver iNKT cells from treated mice: could transfer disease protection
[3]
  suppression of presentation of IGRP206-214 peptide to cognate TCR-transgenic CD8+ T-cells: could suppress
[4]; 66 genes, normalized gene counts, FIG. 8
  expression levels of compared genes in induced liver iNKT cells vs TR1 cells: highly similar levels of expression
[4]; FIG. 8, number of genes
  genes with >4-fold differences in expression compared with TR1 cells: 66
[4]; RNA, treated vs untreated mice
  IL-10 (Il10) expression in liver iNKT cells: high upregulation; also recorded: Il10-high; also recorded: several hundred-fold higher levels
  IL-21 (Il21) expression in liver iNKT cells: Il21-high; also recorded: high upregulation; also recorded: several hundred-fold higher levels
[4]; [9]
  CTLA4 (Ctla4) expression in liver iNKT cells: high levels; also recorded: high upregulation
  Itga4 (CD49d) expression in liver iNKT cells: high levels
  Lag3 expression in liver iNKT cells: high levels; also recorded: high upregulation
  Slamf6 expression in liver iNKT cells: high levels
[4]; RNAseq, treated mice
  Bcl6 expression in liver iNKT cells: Bcl6-low; also recorded: low levels
  Ccr6 expression in liver iNKT cells: significantly downregulated
  Il7r expression in liver iNKT cells: significantly downregulated; also recorded: Il7r-low
  Itgae (CD103) expression in liver iNKT cells: significantly downregulated
  Nrp1 expression in liver iNKT cells: Nrp1-low
  Tnfrsf14 (BTLA) expression in liver iNKT cells: significantly downregulated
[4]; [10]
  Fr4 expression in liver iNKT cells: Fr4−
  Nfil3 expression in liver iNKT cells: Nfli3−
[4]; RNAseq, treated mice, unlike iNKT-FH cells
  Cxcr5 expression in liver iNKT cells: lack expression
[4]; [11]
  Gata3 expression in liver iNKT cells: significantly upregulated
  PD1 expression in liver iNKT cells: high upregulation
  TIGIT expression in liver iNKT cells: high upregulation
  Vdr expression in liver iNKT cells: significantly upregulated
  c-maf (Maf) expression in liver iNKT cells: high upregulation; also recorded: Maf-high; also recorded: significantly upregulated
[4]; RNAseq, untreated: Il2rb+
  Il2rb expression in liver iNKT cells: Il2rb+
[4]; RNAseq, untreated: Il17rb-low
  Il17rb expression in liver iNKT cells: Il17rb−
[4]; RNAseq, untreated: Rorc-low
  Rorc expression in liver iNKT cells: Rorc−
[4]; RNAseq, untreated: Tgfbr2+
  Tgfbr2 expression in liver iNKT cells: Tgfbr2-low
[4]; of 238, comparison of RNA-seq profiles
  differentially expressed genes shared by the TR1 cells: 91
[4]; of 238, number of genes
  differentially expressed genes also upregulated in cognate TR1-like CD4+ T-cells of pMHCII-NP-treated mice: 138
[4]; of the 71 downregulated, FIG. 7
  downregulated genes co-regulated by Maf, Gata3 and Vdr: none
[4]; of the 135 upregulated, FIG. 7
  upregulated protein-coding genes co-regulated by Maf, Gata3 and Vdr: 66
[4]; share of 238 genes
  differentially expressed genes also upregulated in cognate TR1-like CD4+ T-cells of pMHCII-NP-treated mice: 58%
[4]; treated vs untreated mice
  number of differentially expressed genes in liver iNKT cells: 238
  number of downregulated protein-coding genes in liver iNKT cells: 71
  number of upregulated protein-coding genes in liver iNKT cells: 135
[5]; mouse, in vivo
  effect of IL-21R blockade on therapeutic activity: abrogated
[5]; wild-type NOD.c3c4 mice
  inhibition of therapeutic activity by IFNγ blockade: not
  inhibition of therapeutic activity by IL-4 blockade: to a lesser extent
  inhibition of therapeutic activity by IL-10 blockade: partially inhibited
[6]
  conversion of transferred B-cells into IL-10/eGFP-expressing CD1d-high/CD5+ Breg cells: Breg cell formation in treated, but not untreated animals; also recorded: can trigger the conversion
[7]
  effect on spontaneous PBC-like disease: profound suppressive effect
[8]; at the expense of CD4−CD8− iNKT cells, FIG. 3
  CD4/CD8 phenotype of splenic and liver-associated iNKT cells: enriched for CD4+CD8− iNKTs
[8]; [12]
  CD69 level on iNKT cells: significantly higher levels
  CD49d level on iNKT cells: significantly higher levels
  Lag-3 level on iNKT cells: significantly higher levels
  PD1 level on iNKT cells: significantly higher levels
[8]; [13]
  circulating frequency of iNKT cells: slight increase
  iNKT content in spleen and lymph nodes (liver-draining and not): slight decrease
